#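 In this assay, cells in 96-well plates receive the compound at five concentrations for 48 hours. Endpoints are linearly interpolated between the surrounding concentrations. TGI: concentration producing complete growth inhibition.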
# What was measured:
# Assay in all cases: NCI tumour cell line growth inhibition, 48 h
# [1] = tested on: A498 renal
# [2] = tested on: A549 NSCLC
# [3] = tested on: CAKI-1 renal
# [4] = tested on: CCRF-CEM leukemia
# [5] = tested on: COLO 205 colon
# [6] = tested on: DLD-1 colon
# [7] = tested on: DMS 114 small cell lung
# [8] = tested on: DMS 273 small cell lung
# [9] = tested on: EKVX NSCLC
# [10] = tested on: HCC-2998 colon
# [11] = tested on: HCT-116 colon
# [12] = tested on: HCT-15 colon
# [13] = tested on: HL-60(TB) leukemia
# [14] = tested on: HOP-18 NSCLC
# [15] = tested on: HOP-62 NSCLC
# [16] = tested on: HOP-92 NSCLC
# [17] = tested on: HT29 colon
# [18] = tested on: IGROV1 ovarian
# [19] = tested on: K-562 leukemia
# [20] = tested on: KM12 colon
# [21] = tested on: KM20L2 colon
# [22] = tested on: LOX IMVI melanoma
# [23] = tested on: M19-MEL melanoma
# [24] = tested on: MALME-3M melanoma
# [25] = tested on: MCF7 breast
# [26] = tested on: MOLT-4 leukemia
# [27] = tested on: NCI-H226 lung
# [28] = tested on: NCI-H23 lung
# [29] = tested on: NCI-H460 lung
# [30] = tested on: NCI-H522 lung
# [31] = tested on: NCI/ADR-RES ovarian
# [32] = tested on: OVCAR-3 ovarian
# [33] = tested on: OVCAR-4 ovarian
# [34] = tested on: OVCAR-5 ovarian
# [35] = tested on: OVCAR-8 ovarian
# [36] = tested on: P388 leukemia
# [37] = tested on: P388/ADR leukemia
# [38] = tested on: RPMI-8226 leukemia
# [39] = tested on: RXF 393 renal
# [40] = tested on: SF-268 CNS
# [41] = tested on: SF-295 CNS
# [42] = tested on: SF-539 CNS
# [43] = tested on: SK-MEL-2 melanoma
# [44] = tested on: SK-MEL-28 melanoma
# [45] = tested on: SK-MEL-5 melanoma
# [46] = tested on: SK-OV-3 ovarian
# [47] = tested on: SN12C renal
# [48] = tested on: SN12K1 renal
# [49] = tested on: SNB-19 CNS
# [50] = tested on: SNB-75 CNS
# [51] = tested on: SNB-78 CNS
# [52] = tested on: SW-620 colon
# [53] = tested on: U251 CNS
# [54] = tested on: UACC-257 melanoma
# [55] = tested on: UACC-62 melanoma
# [56] = tested on: UO-31 renal
# [57] = tested on: XF 498 CNS
# [58] = tested on: 786-0 renal
# [59] = tested on: ACHN renal
# [60] = tested on: LXFL 529 NSCLC
# [61] = tested on: M14 melanoma
# [62] = tested on: RXF-631 renal
# [63] = tested on: TK-10 renal
smiles,measurement,setting,value
CC[C@](C)(O)C(=O)O[C@H]1C(=O)O[C@@H]2C[C@H]3C(C)=C[C@H](O)[C@@H](O)[C@]3(C)[C@H]3[C@@]4(O)OC[C@]32[C@@H]1[C@@H](C)[C@H]4O,TGI,[1],71.5 µM
same,TGI,[2],292 µM
same,TGI,[3],116 µM
same,TGI,[4],23.9 µM
same,TGI,[5],86.1 µM
same,TGI,[6],63.6 µM
same,TGI,[7],17.6 µM
same,TGI,[8],127 µM
same,TGI,[9],50.3 µM
same,TGI,[10],71.4 µM
same,TGI,[11],89.2 µM
same,TGI,[12],221 µM
same,TGI,[13],43.1 µM
same,TGI,[14],298 µM
same,TGI,[15],157 µM
same,TGI,[16],83.1 µM
same,TGI,[17],120 µM
same,TGI,[18],52.5 µM
same,TGI,[19],48.8 µM
same,TGI,[20],109 µM
same,TGI,[21],189 µM
same,TGI,[22],68.4 µM
same,TGI,[23],45.5 µM
same,TGI,[24],34.1 µM
same,TGI,[25],39 µM
same,TGI,[26],27.5 µM
same,TGI,[27],81.2 µM
same,TGI,[28],13.5 µM
same,TGI,[29],31.3 µM
same,TGI,[30],9.8 µM
same,TGI,[31],> 205 µM
same,TGI,[32],84.5 µM
same,TGI,[33],185 µM
same,TGI,[34],291 µM
same,TGI,[35],136 µM
same,TGI,[36],128 µM
same,TGI,[37],325 µM
same,TGI,[38],24.4 µM
same,TGI,[39],2.43 µM
same,TGI,[40],207 µM
same,TGI,[41],116 µM
same,TGI,[42],47.2 µM
same,TGI,[43],118 µM
same,TGI,[44],123 µM
same,TGI,[45],30 µM
same,TGI,[46],263 µM
same,TGI,[47],310 µM
same,TGI,[48],32.1 µM
same,TGI,[49],48.8 µM
same,TGI,[50],86.5 µM
same,TGI,[51],138 µM
same,TGI,[52],61.7 µM
same,TGI,[53],70.5 µM
same,TGI,[54],149 µM
same,TGI,[55],94.2 µM
same,TGI,[56],284 µM
same,TGI,[57],66.5 µM
C=CCN=C1NC(=O)C(CC(=O)Nc2ccc(C)cc2)S1 (stereo unspecified),TGI,[58],> 100 µM
same,TGI,[1],> 100 µM
same,TGI,[2],> 100 µM
same,TGI,[59],> 100 µM
same,TGI,[3],> 100 µM
same,TGI,[4],> 100 µM
same,TGI,[5],> 100 µM
same,TGI,[6],> 100 µM
same,TGI,[7],> 100 µM
same,TGI,[8],> 100 µM
same,TGI,[9],> 100 µM
same,TGI,[10],> 100 µM
same,TGI,[12],> 100 µM
same,TGI,[13],> 100 µM
same,TGI,[14],> 100 µM
same,TGI,[15],> 100 µM
same,TGI,[17],> 100 µM
same,TGI,[18],> 100 µM
same,TGI,[19],> 100 µM
same,TGI,[20],> 100 µM
same,TGI,[21],> 100 µM
same,TGI,[22],> 100 µM
same,TGI,[60],> 100 µM
same,TGI,[61],> 100 µM
same,TGI,[23],> 100 µM
same,TGI,[24],> 100 µM
same,TGI,[26],> 100 µM
same,TGI,[27],> 100 µM
same,TGI,[28],> 100 µM
same,TGI,[29],> 100 µM
same,TGI,[30],> 100 µM
same,TGI,[32],> 100 µM
same,TGI,[33],> 100 µM
same,TGI,[34],> 100 µM
same,TGI,[35],> 100 µM
same,TGI,[38],> 100 µM
same,TGI,[39],> 100 µM
same,TGI,[62],> 100 µM
same,TGI,[40],> 100 µM
same,TGI,[41],> 100 µM
same,TGI,[42],> 100 µM
same,TGI,[43],> 100 µM
same,TGI,[44],> 100 µM
same,TGI,[45],> 100 µM
same,TGI,[46],> 100 µM
same,TGI,[47],> 100 µM
same,TGI,[49],> 100 µM
same,TGI,[50],> 100 µM
same,TGI,[52],> 100 µM
same,TGI,[63],> 100 µM
same,TGI,[53],> 100 µM
same,TGI,[55],> 100 µM
same,TGI,[56],> 100 µM
same,TGI,[57],> 100 µM
